Entries after “also recorded” stand apart in the source; their conditions may differ. Read-outs that look alike come from different tables or passages of the source.
Key:
MRSA N315 [1] = assay: MIC assay and FICI synergy determination (checkerboard); assay type: cell-based, Staphylococcus aureus; conditions: Staphylococcus aureus, MRSA; single compounds; read-out: MIC in MRSA N315
Description: Microbiological Studies: MRSA N315 was a gift from Dr. Steven Gill, University of Rochester, Rochester, NY, USA. S. aureus ATCC 29213 was acquired from the American Type Culture Collection. De-identified clinical MRSA isolates were selected at random from the clinical isolate strain bank at Barnes-Jewish Hospital, St. Louis, MO, USA. Minimal inhibitory concentration (MIC) assays for inhibition of growth were performed following the recommendations of the Clinical and Laboratory Standards Institute (CLSI)^43. Briefly, 23 antibacterial compounds (Supplemental Table 1) were selected based on coverage of all major drug classes, including three compounds not classified as antibiotics for human use, but with known antibacterial properties. Compounds were dissolved in dimethyl sulfoxide (DMSO) to a stock concentration of 50 mg/ml. Exceptions: Sulfometuron at 20 mg/ml in DMSO; Tobramycin, D-cycloserine, and colistin at 50 mg/ml in H2O and filtered at 2 μm. The 23 compounds were formulated into all 253 possible unique pairwise combinations at fixed ratios and at 100× concentrations in solvent. To increase the range of concentrations assayed for possible synergistic or antagonistic drug interactions (>2,000-fold), the drug stocks were arrayed into threefold dilution series down eight rows in 96-well Costar master drug plates, using a BioMek FX robotic liquid handler (Beckman Coulter, Inc.). Drugs were then mixed 1:100 into 96-well plates containing 200 μl/well of cation-adjusted Mueller-Hinton broth (CAMHB). All drug susceptibility assay wells were inoculated with ˜1 μl of mid-log phase bacterial culture at 0.5 McFarland standard (˜2×10^8 CFU/ml) and grown at 37° C. for 24 h. Endpoint growth at 37° C. after 24 h was determined by optical density at 600 nm ≥0.1 using a Synergy H1 reader (BioTek, Inc.).
Synergy of antibiotic combinations was determined using the fractional inhibitory concentration index (FICI) method ^57,58. By this method, the MIC of the antibiotic compound in combination is divided by the MIC of the compound alone, yielding the fractional contribution of each drug component in the combination. Quotients for all in a combination are summed and drug interactions scored using the formula: FICI=(MIC Acomb A B C)/MICagent A+(MIC Bcomb A B C)/MICagent B+(MIC Ccomb A B C)/MICagentC Select pairwise combinations against MRSA were then combined with each of the 21 remaining single drugs to make triple combinations, formulated and tested in identical fashion to the double combinations. Synergy of combinations was confirmed via triplicate measurements of drug conditions at the MIC. Based on its high synergy against MRSA N315 in the sparse screening, ME/PI/TZ and its constituents were selected for further characterization. Final susceptibility testing of ME/PI/TZ and its components was performed using twofold dilution from 128 to 2 μg/ml for each component

MRSA N315 [2] = assay: Adaptation and cross-resistance assays (11-day passage); assay type: cell-based, Staphylococcus aureus
Description: Adaptation and Cross-resistance Assays: 414 MRSA N315 was grown in 150 μl/well of CAMHB with constant shaking at 37° C. and passaged over 11 days in identical 96-well plates containing replicate threefold dilutions of ME/PI/TZ, ME/PI, ME/TZ, PI/TZ, ME, PI, and TZ. Top concentrations of drug combinations were 33.3 μg/ml for each component, while top concentrations for single drugs was 100 μg/ml. To test for cell viability, at the end of the assay on day 11, all wells from the plate were pinned with a sterile 96-pin replicator and transferred to CAMHB only. After passage, plates were filled 1:1 with 30% CAMHB/glycerol and frozen at −80° C. for later analysis.
Growth rate of isolates over passages in each condition was determined by linear best-fit of logarithm-converted exponential growth phase. […] Adapted isolates were retrospectively chosen from each combination or single compound in wells showing an increase in MIC or growth rate, frozen isolates were streaked out on agar plates to obtain single colonies, re-grown in broth conditions identical to those in which they grew originally, and then re-inoculated in sterile 96-well plates identical to the original 11-day 431 plates.

allosteric site of PBP2a = allosteric site of PBP2a (Staphylococcus aureus, UniProt P07944); assay: Binding to the allosteric site of PBP2a
[3] = in vivo, iv; cited from earlier work

Sequence of allosteric site of PBP2a (P07944 whole entry): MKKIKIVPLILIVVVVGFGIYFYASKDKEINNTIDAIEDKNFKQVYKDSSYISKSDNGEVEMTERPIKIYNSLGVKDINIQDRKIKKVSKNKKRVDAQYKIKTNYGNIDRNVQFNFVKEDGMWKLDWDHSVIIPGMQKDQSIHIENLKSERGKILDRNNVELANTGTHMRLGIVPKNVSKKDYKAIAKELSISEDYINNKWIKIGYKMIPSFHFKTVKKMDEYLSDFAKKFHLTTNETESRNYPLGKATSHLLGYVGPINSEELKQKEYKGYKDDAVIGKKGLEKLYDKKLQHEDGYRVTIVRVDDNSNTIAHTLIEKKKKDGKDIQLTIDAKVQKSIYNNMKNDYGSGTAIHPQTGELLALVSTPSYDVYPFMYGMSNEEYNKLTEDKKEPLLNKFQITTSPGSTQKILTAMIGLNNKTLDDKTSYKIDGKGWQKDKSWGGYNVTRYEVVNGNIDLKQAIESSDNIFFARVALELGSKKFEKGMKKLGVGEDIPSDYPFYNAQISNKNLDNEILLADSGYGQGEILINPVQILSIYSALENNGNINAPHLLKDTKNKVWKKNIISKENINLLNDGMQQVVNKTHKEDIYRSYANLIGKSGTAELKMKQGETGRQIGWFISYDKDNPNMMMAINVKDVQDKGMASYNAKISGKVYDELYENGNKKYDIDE

SMILES	MIC (MRSA N315 [1]) [µg/mL]	collateral effect on susceptibility (MRSA N315 [2]; MRSA N315 after prior exposure to PI/TZ)	collateral effect on susceptibility (MRSA N315 [2]; MRSA N315 after prior exposure/adaptation to piperacillin)	Kd (allosteric site of PBP2a; read-out: dissociation constant (Kd)) [µM]	Kd (allosteric site of PBP2a; read-out: dissociation constant (Kd), equivalent (converted)) [µM]	mean peak plasma concentration [3] [µg/mL]	collateral effect on susceptibility (MRSA N315 [2]; MRSA N315 after prior exposure to ME/TZ)	collateral effect on susceptibility (MRSA N315 [2]; MRSA N315 after prior exposure to tazobactam)	collateral effect on susceptibility (MRSA N315 [2]; MRSA N315 after prior exposure/adaptation to meropenem)
C[C@@H](O)[C@H]1C(=O)N2C(C(=O)O)=C(S[C@@H]3CN[C@H](C(=O)N(C)C)C3)[C@H](C)[C@H]12 [Meropenem]	16	sensitized	sensitizes; also recorded: strong reciprocal collateral sensitivity	270 ± 80	271	112			
CCN1CCN(C(=O)N[C@@H](C(=O)N[C@@H]2C(=O)N3[C@@H]2SC(C)(C)[C@@H]3C(=O)O)c2ccccc2)C(=O)C1=O [Piperacillin]	64						strong reciprocal collateral sensitivity	Collateral sensitivity	strong reciprocal collateral sensitivity

Source: US20230293488A1, “COMPOSITIONS AND METHODS OF USE OF ANTIBACTERIAL DRUG COMBINATIONS” (priority 2015, published 2023)
